Test [1] has as its system hsp-16.2p::GFP. The test can be described thus: hsp-16.2p::GFP reporter induction (cytosolic HSR / MCSR). In kind it is in vivo, C. elegans. To be noted: for hsp-6 RNAi-induced MCSR (hsp-16.2p::GFP): ceramide fed worms, 100μg/ml, 48 hours, on hsp-6 RNAi. Here is the method: (§1) Bacterial feeding of RNAi experiments was conducted during adulthood to exclude target genes' function during developmental stages. Synchronized eggs were harvested by bleaching and nematodes were grown on plates with E. coli OP50 until they reached early adulthood before they were transferred to RNAi plates. Day 1 adult worms were then grown on the RNAi plates with E. coli HT115 that carried the RNAi construct for 3 days at 20° C. Worms were imaged using a fluorescent microscope for green fluorescent protein (GFP) induction or applied to COPAS Biosorter (Union Biometrica) to quantify the level of GFP induction. The temperature-sensitive sterile strains were grown at 15° C. until they were gravid adults. Then, the cohorts were shifted to 25° C. Day 1 adult worms were transferred to RNAi plates for 2 days before images were taken. For the double RNAi treatment, E. coli carrying the indicated RNAi constructs are mixed 1:1 ratio.
(§2) Lipids, Inc. Lyophilized lipids were dissolved in Methanol with sonication. Ceramides were diluted to 100μg/ml and spotted on top of the OP50 plates or RNAi plates. Worms were transferred to Ceramide-spotted plates at L4 stage and the images were taken after 48 hours. Cardiolipin was fed to bacteria for 2-4 hours (OP50 or RNAi construct-carrying HT115) with final concentration of 100μg/ml. Then the bacteria were spotted on plates before transferring the worms. L4 worms were then transferred to the cardiolipin spotted plates and images were taken after 48 hours.
Worms were grown up to day 1 adults and underwent heat shock at 34° C. for 2 hours, then recovered at 20° C. for overnight before taking images. For the Nile Red Staining experiment, worms were recovered for 48 hours.
(§3) Perhexiline (Sigma) powder was dissolved in dimethylsulfoxide (DMSO) (100 mM). The stock was diluted to 1 mM and 100 μl was spotted on the E. coli OP50 plates or HT115 RNAi plates and dried before transferring the worms. Worms were transferred to new perhexiline plates every other day for three to four days until harvested for following experiment. […]

Test [2] deals with hsp-6p::GFP. The test can be described thus: hsp-6p::GFP / hsp-60p::GFP reporter induction (UPRmt). Format: in vivo, C. elegans. Particulars: for UPRmt caused by cco-1 knockdown: ceramide fed reporter worms. Here is the method:
as §1, §2
(§4) Perhexiline (Sigma) powder was dissolved in dimethylsulfoxide (DMSO) (100 mM). The stock was diluted to 1 mM and 100 μl was spotted on the E. coli OP50 plates or HT115 RNAi plates and dried before transferring the worms. Worms were transferred to new perhexiline plates every other day for three to four days until harvested for following experiment. For the perhexiline treatment with multiple numbers of RNAi (e.g., FIG. 4C), worms were transferred to the S-media containing HT115 RNAi bacteria, 100 μM of perhexiline and 1 mM of IPTG in a 96-well plate for 48 hrs.

Test [3] concerns C. elegans. The test can be described thus: Triglyceride quantification in worms. In kind it is in vivo. To be noted: perhexiline treated worms. Here is the method:
(§5) To quantify triglyceride content, a Triglyceride quantification kit (Bio Vision) was used according to the manufacturer's protocol. Briefly, worms were harvested from plates and washed with M9 three times. Worms were homogenized with 5% NP-40 in water using a glass dounce homogenizer to extract mostly the intestinal tissues by checking the lysates under a dissecting microscope. Worms looked like empty shells once the intestinal tissues were extracted out. The samples were heated slowly at 90° C. for 5 minutes and cooled down to room temperature. Heating was repeated once more prior to centrifugation of the samples for 2 minutes to bring down debris. Supernatant was removed and mixed with enzymes provided in the kit according to the manufacturer's manual. Measurement was done using microplate reader M1000 (TECAN) at Ex/Em=535/590 nm. Calculations were done after subtracting 0 standard readings as a background.
Sample Triglyceride control (C)=B/V×D nmol/μl or mM
as §3

Test [4] relates to polyglutamine repeats in Huntingtin exon 1 (Q78). The test can be described thus: Filter trap assay of polyQ aggregates in human primary fibroblasts. Format: cell-based. To be noted: perhexiline 400 nM, 48 hours. The method, then:
The following siRNAs were tested for depleting the indicated genes in the human primary fibroblasts or HEK cells: hspa9 siRNA (#1 and #2), accl siRNA (#1 and #2), fas siRNA (#1 and #2) (Ambion). Scrambled siRNA with no known mammalian homology (non-targeting siRNA #1 (Ambion) was used as negative control. Double siRNA treatment was performed by mixing two different siRNAs indicated at 1:1 ratio. Cells were transfected with the siRNAs using JetPrime according to the manufacturer's manual and then harvested after 48 h. Control vector-transfected cells were used as controls for all the experiments.
100μg of protein samples were applied on to cellulose acetate membrane with 0.22 μm pore size (Schlechtes+Schule), assembled in vacuum slot blotter (Bio-Dot, Bio-Rad). Membrane was washed with 0.2% SDS five times on the blotter and subjected to antibody incubation for detecting aggregated protein retained on the membrane. Briefly, membrane was incubated with anti-GFP antibody (1:3000 dilution in 5% milk in PBS, Roche) overnight in a cold room. Membrane was washed with PBST (PBST with 0.05% Tween-20) for three times, then incubated with secondary antibody (donkey anti-mouse antibody conjugated with HRP, 1:5000 dilution in 5% milk in PBS, Jackson Immuno Research). […]

Test [5] relates to cytosolic HSP70. The test can be described thus: Western blotting of cytosolic HSP70 in human primary fibroblasts. In kind it is cell-based. Particulars: human primary fibroblasts (GFP expressing cells). The method, then: The following siRNAs were tested for depleting the indicated genes in the human primary fibroblasts or HEK cells: hspa9 siRNA (#1 and #2), accl siRNA (#1 and #2), fas siRNA (#1 and #2) (Ambion). Scrambled siRNA with no known mammalian homology (non-targeting siRNA #1 (Ambion) was used as negative control. Double siRNA treatment was performed by mixing two different siRNAs indicated at 1:1 ratio. Cells were transfected with the siRNAs using JetPrime according to the manufacturer's manual and then harvested after 48 h. Control vector-transfected cells were used as controls for all the experiments. For SDS-PAGE, 20-40μg of protein samples were loaded on 4-12% bis-tris SDS gel (Invitrogen). The gel was transferred to nitrocellulose membrane (GE) using XCell II blot module (Invitrogen). Then, membranes were incubated with antibodies and exposed to film as described above. mtHSP70 (Abcam), α-Tubulin (Sigma), GFP (Roche), and cytosolic HSP70 (HSP70/HSP72, Enzo life) were used to probe the membrane. The western blot bands' intensity was measured using ImageJ software. For the cell culture experiments, cells were grown to 90% confluent and washed with PBS. Indicated concentrations of perhexiline were diluted in the cell growth media with serum and replaced in cell culture dishes. After 48 hours, cells were washed with PBS and harvested for following experiments.

The test system of test [6] is aggregated PolyQ proteins (Q35::YFP). The test can be described thus: Filter trap assay of aggregated PolyQ proteins in worms. In kind it is in vivo, C. elegans. To be noted: AM140 worms. Here is the method:
100μg of protein samples were applied on to cellulose acetate membrane with 0.22 μm pore size (Schlechtes+Schule), assembled in vacuum slot blotter (Bio-Dot, Bio-Rad). Membrane was washed with 0.2% SDS five times on the blotter and subjected to antibody incubation for detecting aggregated protein retained on the membrane. Briefly, membrane was incubated with anti-GFP antibody (1:3000 dilution in 5% milk in PBS, Roche) overnight in a cold room. Membrane was washed with PBST (PBST with 0.05% Tween-20) for three times, then incubated with secondary antibody (donkey anti-mouse antibody conjugated with HRP, 1:5000 dilution in 5% milk in PBS, Jackson Immuno Research). Membranes were washed with PBST three times and exposed to film after applying ECL solutions (Pierce) to visualize the protein bands.
as §4

Test [7] relates to C. elegans. The test can be described thus: Oxygen consumption rate of whole worms (Seahorse). Particulars: perhexiline treatment of hsp-6 RNAi animals. In kind it is in vivo. The method, then: Oxygen consumption of whole worms was measured using the Seahorse XF96 (Seahorse Bioscience). Worms were washed off from plates with M9 to remove residual bacteria. Then, 50 worms (10 worms/well/100 μl) were transferred to the microplate. 50 μl of M9 was added to the wells and the oxygen consumption rate was measured. All experiments were repeated at least three times.

The test system of test [8] is human primary fibroblasts. The test can be described thus: Triglyceride content of human primary fibroblasts. To be noted: human primary fibroblasts (GFP expressing cells) after perhexiline treatment. In kind it is cell-based. The method, then:
as §5
For the mammalian cell culture samples, cells were washed with cold PBS and homogenized with 5% NP-40 in water using a syringe with 22 G needle, followed by the procedure shown above. All experiments were done with three biological repeats.
For the cell culture experiments, cells were grown to 90% confluent and washed with PBS. Indicated concentrations of perhexiline were diluted in the cell growth media with serum and replaced in cell culture dishes. […]

With `CCCCCCCCCCCCC/C=C/[C@@H](O)[C@H](CO)NC(=O)CCCCCCCCCCCCCCCCCCC` [C20 ceramide], in test [1], the “hsp-6 RNAi-induced MCSR (hsp-16.2p::GFP)” value is reported as “partially block”. The “UPRmt caused by cco-1 knockdown” value in test [2] is “did not affect”.

In the case of `CCCCCCCCCCCCC/C=C/[C@@H](O)[C@H](CO)NC(=O)CCCCCCCCCCCCCCCCCCCCC` [C22 ceramide], the “hsp-6 RNAi-induced MCSR (hsp-16.2p::GFP)” value in test [1] is “completely inhibited”. The “UPRmt caused by cco-1 knockdown” value in test [2] is given as “did not affect”.

Take `C1CCC(C(CC2CCCCN2)C2CCCCC2)CC1` (stereo not drawn) [perhexiline, 2-(2,2-dicyclohexylethyl)piperidine]: the “fat accumulation (triglyceride content)” value in test [3] is listed as “increased”. Moreover, the polyglutamine protein aggregation result in test [4] was “reduced”. Besides, the “expression of cytosolic HSP70” value in test [5] is listed as “induce expression”. Moreover, the “cytosolic hsp-16.2 expression” value in test [1] (perhexiline treated hsp-16.2p::GFP;CF512 reporter worms) is on record as “specifically induced”. In test [6], the “levels of aggregated PolyQ proteins” value is reported as “decreased levels”. Further, in test [7], the “overall oxygen consumption rate” value is recorded as “did not further reduce”. Further, in test [2] (perhexiline treated reporter worms), the “induction of UPRmt (hsp-6p::GFP, hsp-60p::GFP)” value is “moderately induced”. Further, the triglyceride levels entry in test [8] is “increased”.

(Values after patent US20180216113A1, “METHODS FOR REDUCING PROTEOTOXICITY” (priority 2015, published 2018).)
